Reference: US20260070945A1, “MACROCYCLIC IMMUNOMODULATORS” (Bristol-Myers Squibb Company, priority 2022, published 2026)
*1 amine or outer side, *2 acyl side, *3 side chain or, on linkers, in order; H or OH if unused. Where a SMILES comes first, the peptide text is derived from it. Bridges are numbered along the chain shown (N, C = ends). [ ]: non-standard residue; d: D form. The star is where a group is joined. ξ: configuration not given here. X10 = O=C(O)COc1ccc(C[C@H](CC(=O)C[*:2])C(=O)[*:1])cc1; Phe(3-CF3) = N[C@@H](Cc1cccc(C(F)(F)F)c1)C(=O)O; Phe(4-CF3) = N[C@@H](Cc1ccc(C(F)(F)F)cc1)C(=O)O; Phe(4-COOH) = N[C@@H](Cc1ccc(C(=O)O)cc1)C(=O)O; Bip = N[C@@H](Cc1ccc(-c2ccccc2)cc1)C(=O)O; NH(CH2)14COOH = O=C(O)CCCCCCCCCCCCCCN*; Phe(3-F) = N[C@@H](Cc1cccc(F)c1)C(=O)O; Phe(3-Me) = Cc1cccc(C[C@H](N)C(=O)O)c1; Val(3-OH) = CC(C)(O)[C@H](N)C(=O)O; NHhexadecyl = CCCCCCCCCCCCCCCCN*; 3Pal = N[C@@H](Cc1cccnc1)C(=O)O; 4Pal = N[C@@H](Cc1ccncc1)C(=O)O; Cha = N[C@@H](CC1CCCCC1)C(=O)O; Ile(3ξ) = CCC(C)[C@H](N)C(=O)O; Thr(3ξ) = CC(O)[C@H](N)C(=O)O; Carboxymethyl = O=C(O)C*; NMeA = CN[C@@H](C)C(=O)O; Orn = NCCC[C@H](N)C(=O)O; Aun = NCCCCCCCCCCC(=O)O; Dab = NCC[C@H](N)C(=O)O; Dap = NC[C@H](N)C(=O)O; AEEA = NCCOCCOCC(=O)O

The compounds below were run against T1, PD-1/PD-L1 interaction (PE-labeled human PD-L1-Ig binding to Jurkat cell line over-expressing human PD-1) (Homo sapiens, UniProt Q15116) (assay: Jurkat-PD-1 Cell Binding High-Content Screening Assay (CBA)). Conditions: Jurkat-hPD-1 cells, PE-labeled PD-L1-Ig 20 nM final; read-out: Jurkat HPD1 PDL1 IC50.
T1 construct: expressed in transfected cells; host or cells: Jurkat
Method in brief: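 Read-out: high-content imaging of cell-bound PE fluorescence, with Hoechst 33342 nuclear counterstain after paraformaldehyde fixation. Before labeled ligand (20 nM final, 1 h) was added, compound sat on the cells for 2 h at 37 °C in DMEM/10% FCS.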

T1 sequence (Q15116 25-288): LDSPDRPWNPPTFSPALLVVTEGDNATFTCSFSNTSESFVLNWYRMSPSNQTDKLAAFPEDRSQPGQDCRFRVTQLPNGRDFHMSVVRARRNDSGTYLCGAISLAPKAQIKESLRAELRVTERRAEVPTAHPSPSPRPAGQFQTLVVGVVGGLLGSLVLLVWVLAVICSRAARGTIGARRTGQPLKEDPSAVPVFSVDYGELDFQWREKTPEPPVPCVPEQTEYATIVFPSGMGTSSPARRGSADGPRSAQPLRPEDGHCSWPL

IC50 | Compound
18.3 nM | CC[C@H](C)[C@@H]1NC(=O)[C@H](Cc2ccc(-c3ccccc3)cc2)NC(=O)[C@H](CC(C)C)NC(=O)[C@H](Cc2c[nH]c3ccccc23)NC(=O)[C@H](CC(=O)O)NC(=O)[C@H](Cc2ccc(C(=O)O)cc2)NC(=O)[C@H](Cc2ccc(OCC(=O)O)cc2)NC(=O)CSC[C@@H](C(=O)N[C@@H](CCCN)C(=O)NCCCCCCCCCCC(=O)O)NC(=O)[C@H](CO)NC(=O)[C@H](C(C)C)NC(=O)[C@H](CC2CCCCC2)NC(=O)[C@H](CCN)NC(=O)[C@@H](CC(C)C)NC(=O)[C@H](C)N(C)C1=O [Example 1072] ({CH2CO}-Y(Carboxymethyl)[Phe(4-COOH)]DWL[Bip]I[NMeA][dL][Dab][Cha]VSC[Orn][Aun]-OH; thioether N-14)
15.9 nM | Cc1cccc(C[C@@H]2NC(=O)[C@H](CC(=O)O)NC(=O)[C@H](Cc3ccc(C(=O)O)cc3)NC(=O)[C@H](Cc3cccnc3)NC(=O)CSC[C@@H](C(=O)N[C@@H](CCN)C(=O)NCCCCCCCCCCC(=O)O)NC(=O)[C@H](CO)NC(=O)[C@H](C(C)(C)O)NC(=O)[C@H](CC3CCCCC3)NC(=O)[C@H](CCN)NC(=O)[C@@H](CC(C)C)NC(=O)[C@H](C)N(C)C(=O)[C@H](Cc3ccc(OCC(=O)O)cc3)NC(=O)[C@H](Cc3ccc(-c4ccccc4)cc3)NC(=O)[C@H](Cc3ccc(OCC(=O)O)cc3)NC2=O)c1 [Example 1283] ({CH2CO}-[3Pal][Phe(4-COOH)]D[Phe(3-Me)]Y(Carboxymethyl)[Bip]Y(Carboxymethyl)[NMeA][dL][Dab][Cha][Val(3-OH)]SC[Dab][Aun]-OH; thioether N-14)
12 nM | Cc1cccc(C[C@@H]2NC(=O)[C@H](CC(=O)O)NC(=O)[C@H](Cc3ccc(OCC(=O)O)cc3)NC(=O)[C@H]([C@@H](C)O)NC(=O)CSC[C@@H](C(=O)N[C@@H](CCN)C(=O)NCCOCCOCC(=O)NCCCCCCCCCCC(=O)O)NC(=O)[C@H](CCC(=O)O)NC(=O)[C@H](C(C)C)NC(=O)[C@H](CC3CCCCC3)NC(=O)[C@H](CCN)NC(=O)[C@@H](CC(C)C)NC(=O)[C@H](C)N(C)C(=O)[C@H](Cc3ccc(OCC(=O)O)cc3)NC(=O)[C@H](Cc3ccc(-c4ccccc4)cc3)NC(=O)[C@H](Cc3ccc(OCC(=O)O)cc3)NC2=O)c1 [Example 1369] ({CH2CO}-TY(Carboxymethyl)D[Phe(3-Me)]Y(Carboxymethyl)[Bip]Y(Carboxymethyl)[NMeA][dL][Dab][Cha]VEC[Dab][AEEA][Aun]-OH; thioether N-14)
33.2 nM | CC(C)C[C@@H]1NC(=O)[C@H](Cc2c[nH]c3ccccc23)NC(=O)[C@H](CC(=O)O)NC(=O)[C@H](Cc2ccncc2)NC(=O)[C@H](Cc2ccc(OCC(=O)O)cc2)NC(=O)CSC[C@@H](C(=O)N[C@@H](Cc2c[nH]cn2)C(=O)NCCCCCCCCCCC(=O)O)NC(=O)[C@H](CO)NC(=O)[C@H](C(C)C)NC(=O)[C@H](CC2CCCCC2)NC(=O)[C@H](CCN)NC(=O)[C@@H](CC(C)C)NC(=O)[C@H](C)N(C)C(=O)[C@H](C(C)C)NC(=O)[C@H](Cc2ccc(-c3ccccc3)cc2)NC1=O [Example 1087] ({CH2CO}-Y(Carboxymethyl)[4Pal]DWL[Bip]V[NMeA][dL][Dab][Cha]VSCH[Aun]-OH; thioether N-14)
304 nM | CC(C)C[C@H]1NC(=O)[C@H](C)N(C)C(=O)[C@H](Cc2ccc(OCC(=O)O)cc2)NC(=O)[C@H](Cc2ccc(-c3ccccc3)cc2)NC(=O)[C@H](Cc2ccc(OCC(=O)O)cc2)NC(=O)[C@H](Cc2c[nH]c3ccccc23)NC(=O)[C@H](CC(=O)O)NC(=O)[C@H](Cc2ccc(OCC(=O)O)cc2)NC(=O)[C@H]([C@@H](C)O)NC(=O)CSC[C@@H](C(=O)N[C@@H](CCCN)C(=O)NCCOCCOCC(=O)NCCCCCCCCCCC(=O)O)NC(=O)[C@H](CCC(=O)O)NC(=O)[C@H](C(C)C)NC(=O)[C@H](CC2CCCCC2)NC(=O)[C@H](CCN)NC1=O [Example 1396] ({CH2CO}-TY(Carboxymethyl)DWY(Carboxymethyl)[Bip]Y(Carboxymethyl)[NMeA][dL][Dab][Cha]VEC[Orn][AEEA][Aun]-OH; thioether N-14)
33.1 nM | CC(C)C[C@H]1NC(=O)[C@H](C)N(C)C(=O)[C@H](Cc2ccc(OCC(=O)O)cc2)NC(=O)[C@H](Cc2ccc(-c3ccccc3)cc2)NC(=O)[C@H](Cc2ccc(OCC(=O)O)cc2)NC(=O)[C@H](Cc2c[nH]c3ccccc23)NC(=O)[C@H](CC(=O)O)NC(=O)[C@H](Cc2ccc(OCC(=O)O)cc2)NC(=O)[C@H]([C@@H](C)O)NC(=O)CSC[C@@H](C(=O)N[C@@H](CCN)C(=O)NCCOCCOCC(=O)NCCCCCCCCCCC(=O)O)NC(=O)[C@H](CC(N)=O)NC(=O)[C@H](C(C)C)NC(=O)[C@H](CC2CCCCC2)NC(=O)[C@H](CCN)NC1=O [Example 1393] ({CH2CO}-TY(Carboxymethyl)DWY(Carboxymethyl)[Bip]Y(Carboxymethyl)[NMeA][dL][Dab][Cha]VNC[Dab][AEEA][Aun]-OH; thioether N-14)
23.5 nM | Cc1cccc(C[C@@H]2NC(=O)[C@H](CC(=O)O)NC(=O)[C@H](Cc3ccc(OCC(=O)O)cc3)NC(=O)[C@H](Cc3ccc(OCC(=O)O)cc3)NC(=O)CSC[C@@H](C(=O)N[C@@H](CN)C(=O)NCCCCCCCCCCC(=O)O)NC(=O)[C@H](C(C)O)NC(=O)[C@H](C(C)C)NC(=O)[C@H](CC3CCCCC3)NC(=O)[C@H](CCN)NC(=O)[C@@H](CC(C)C)NC(=O)[C@H](C)N(C)C(=O)[C@H](C(C)C)NC(=O)[C@H](Cc3ccc(-c4ccccc4)cc3)NC(=O)[C@H](CC(C)C)NC2=O)c1 (stereo partly drawn) [Example 2333] ({CH2CO}-Y(Carboxymethyl)Y(Carboxymethyl)D[Phe(3-Me)]L[Bip]V[NMeA][dL][Dab][Cha]V[Thr(3ξ)]C[Dap][Aun]-OH; thioether N-14)
20.1 nM | Cc1cccc(C[C@@H]2NC(=O)[C@H](CC(=O)O)NC(=O)[C@H](Cc3ccc(C(=O)O)cc3)NC(=O)[C@H](Cc3ccc(OCC(=O)O)cc3)NC(=O)CSC[C@@H](C(=O)N[C@@H](CCC(=O)O)C(=O)NCCCCCCCCCCC(=O)O)NC(=O)[C@H](CO)NC(=O)[C@H](C(C)C)NC(=O)[C@H](CC(C)C)NC(=O)[C@H](CC(N)=O)NC(=O)[C@@H](CC(C)C)NC(=O)[C@H](C)N(C)C(=O)[C@H](C(C)C)NC(=O)[C@H](Cc3ccc(-c4ccccc4)cc3)NC(=O)[C@H](CC(C)C)NC2=O)c1 [Example 1003] ({CH2CO}-Y(Carboxymethyl)[Phe(4-COOH)]D[Phe(3-Me)]L[Bip]V[NMeA][dL]NLVSCE[Aun]-OH; thioether N-14)

Same assay, conditions: PE-labeled PD-L1-Ig 20 nM final, Jurkat-hPD-1 cells; read-out: Jurkat HPD1 PDL1 IC50

IC50 | Compound
615 nM | CC(C)C[C@H]1NC(=O)[C@H](C)N(C)C(=O)[C@H](Cc2ccc(C(=O)O)cc2)NC(=O)[C@H](Cc2ccc(-c3ccccc3)cc2)NC(=O)[C@H](Cc2ccc(C(=O)O)cc2)NC(=O)[C@H](Cc2cccc(C(F)(F)F)c2)NC(=O)[C@H](CC(=O)O)NC(=O)[C@H](Cc2ccc(C(=O)O)cc2)NC(=O)[C@H](C(C)O)NC(=O)CSC[C@@H](C(=O)N[C@@H](CCN)C(=O)NCCOCCOCC(=O)NCCCCCCCCCCCCCCC(=O)O)NC(=O)[C@H](CC(=O)O)NC(=O)[C@H](C(C)C)NC(=O)[C@H](CC2CCCCC2)NC(=O)[C@H](CCN)NC1=O (stereo partly drawn) [Example 2605] ({CH2CO}-[Thr(3ξ)][Phe(4-COOH)]D[Phe(3-CF3)][Phe(4-COOH)][Bip][Phe(4-COOH)][NMeA][dL][Dab][Cha]VDC[Dab][AEEA]-{NH(CH2)14COOH}; thioether N-14)
89.6 nM | CCC(C)[C@@H]1NC(=O)[C@H](Cc2ccc(-c3ccccc3)cc2)NC(=O)[C@H](Cc2ccc(C(F)(F)F)cc2)NC(=O)[C@H](Cc2cccc(F)c2)NC(=O)[C@H](CC(=O)O)NC(=O)[C@H](Cc2ccc(OCC(=O)O)cc2)NC(=O)[C@H](Cc2cnc[nH]2)NC(=O)CSC[C@@H](C(=O)N[C@@H](CCN)C(=O)NCCOCCOCC(=O)NCCCCCCCCCCC(=O)O)NC(=O)[C@H](CCC(=O)O)NC(=O)[C@H](C(C)C)NC(=O)[C@H](CC2CCCCC2)NC(=O)[C@H](CCN)NC(=O)[C@@H](CC(C)C)NC(=O)[C@H](C)N(C)C1=O (stereo partly drawn) [Example 2592] ({CH2CO}-HY(Carboxymethyl)D[Phe(3-F)][Phe(4-CF3)][Bip][Ile(3ξ)][NMeA][dL][Dab][Cha]VEC[Dab][AEEA][Aun]-OH; thioether N-14)
38.9 nM | CCCCCCCCCCCCCCCCNC(=O)CC[C@H](NC(=O)COCCOCCNC(=O)[C@H](CCN)NC(=O)[C@@H]1CSCC(=O)C[C@@H](Cc2ccc(OCC(=O)O)cc2)C(=O)N[C@@H](Cc2ccc(OCC(=O)O)cc2)C(=O)N[C@@H](CC(=O)O)C(=O)N[C@@H](Cc2cccc(C(F)(F)F)c2)C(=O)N[C@@H](Cc2ccc(C(=O)O)cc2)C(=O)N[C@@H](Cc2ccc(-c3ccccc3)cc2)C(=O)N[C@@H](CCC(N)=O)C(=O)N(C)[C@@H](C)C(=O)N[C@H](CC(C)C)C(=O)N[C@@H](CCN)C(=O)N[C@@H](CC2CCCCC2)C(=O)N[C@@H](C(C)(C)O)C(=O)N[C@@H](CCCCNC(C)=O)C(=O)N1)C(=O)O [Example 2641] (Y(Carboxymethyl)D[Phe(3-CF3)][Phe(4-COOH)][Bip]Q[NMeA][dL][Dab][Cha][Val(3-OH)]K(Ac)C[Dab][AEEA]E(NHhexadecyl)-OH; linker N-13 via X10)
427 nM | CC(C)C[C@H]1NC(=O)[C@H](C)N(C)C(=O)[C@H](Cc2ccc(C(=O)O)cc2)NC(=O)[C@H](Cc2ccc(-c3ccccc3)cc2)NC(=O)[C@H](Cc2ccc(C(=O)O)cc2)NC(=O)[C@H](Cc2cccc(C(F)(F)F)c2)NC(=O)[C@H](CC(=O)O)NC(=O)[C@H](Cc2ccc(C(=O)O)cc2)NC(=O)[C@H](C(C)O)NC(=O)CSC[C@@H](C(=O)N[C@@H](CCN)C(=O)NCCOCCOCC(=O)NCCOCCOCC(=O)NCCCCCCCCCCCCCCC(=O)O)NC(=O)[C@H](CC(=O)O)NC(=O)[C@H](C(C)C)NC(=O)[C@H](CC2CCCCC2)NC(=O)[C@H](CCN)NC1=O (stereo partly drawn) [Example 2616] ({CH2CO}-[Thr(3ξ)][Phe(4-COOH)]D[Phe(3-CF3)][Phe(4-COOH)][Bip][Phe(4-COOH)][NMeA][dL][Dab][Cha]VDC[Dab][AEEA][AEEA]-{NH(CH2)14COOH}; thioether N-14)
